Experimental data reported in ChEMBL document CHEMBL2413072, “Synthesis and in vitro anticancer studies of novel C-2 arylidene congeners of lantadenes” (2013).

Tests used:
Assay type in all cases: functional
[1] = system: K562; test: Growth inhibition of human K562 cells assessed as cell growth at 10 uM by sulforhodamine B assay; details: read-out: Activity
[2] = system: T47D; test: Growth inhibition of human T47D cells assessed as growth inhibition at 10 uM by sulforhodamine B assay; details: read-out: GI
[3] = system: Malme-3M; test: Growth inhibition of human MALME-3M cells assessed as cell growth at 10 uM by sulforhodamine B assay; details: read-out: Activity
[4] = system: DU-145; test: Growth inhibition of human DU145 cells assessed as cell growth at 10 uM by sulforhodamine B assay; details: read-out: Activity
[5] = system: NCI-H226; test: Growth inhibition of human NCI-H226 cells assessed as growth inhibition at 10 uM by sulforhodamine B assay; details: read-out: GI
[6] = system: SK-MEL-2; test: Growth inhibition of human SK-MEL-2 cells assessed as cell growth at 10 uM by sulforhodamine B assay; details: read-out: Activity
[7] = system: HOP-92; test: Growth inhibition of human HOP92 cells assessed as growth inhibition at 10 uM by sulforhodamine B assay; details: read-out: GI
[8] = system: A498; test: Growth inhibition of human A498 cells assessed as cell growth at 10 uM by sulforhodamine B assay; details: read-out: Activity
[9] = system: PC-3; test: Growth inhibition of human PC3 cells assessed as cell growth at 10 uM by sulforhodamine B assay; details: read-out: Activity
[10] = system: HL-60(TB); test: Growth inhibition of human HL-60(TB) cells assessed as cell growth at 10 uM by sulforhodamine B assay; details: read-out: Activity
[11] = system: HCT-15; test: Growth inhibition of human HCT15 cells assessed as cell growth at 10 uM by sulforhodamine B assay; details: read-out: Activity
[12] = system: OVCAR-5; test: Growth inhibition of human OVCAR5 cells assessed as cell growth at 10 uM by sulforhodamine B assay; details: read-out: Activity
[13] = system: MDA-MB-435; test: Growth inhibition of human MDA-MB-435 cells assessed as growth inhibition at 10 uM by sulforhodamine B assay; details: read-out: GI
[14] = system: A549; test: Growth inhibition of human A549/ATCC cells assessed as cell growth at 10 uM by sulforhodamine B assay; details: read-out: Activity
[15] = system: SK-MEL-28; test: Growth inhibition of human SK-MEL-28 cells assessed as growth inhibition at 10 uM by sulforhodamine B assay; details: read-out: GI
[16] = system: NCI-H322M; test: Growth inhibition of human NCI-H322M cells assessed as growth inhibition at 10 uM by sulforhodamine B assay; details: read-out: GI
[17] = system: LOX IMVI; test: Growth inhibition of human LOXIMVI cells assessed as growth inhibition at 10 uM by sulforhodamine B assay; details: read-out: GI
[18] = system: M14; test: Growth inhibition of human M14 cells assessed as growth inhibition at 10 uM by sulforhodamine B assay; details: read-out: GI
[19] = system: U-251; test: Growth inhibition of human U251 cells assessed as cell growth at 10 uM by sulforhodamine B assay; details: read-out: Activity
[20] = Growth inhibition of human HCC2998 cells assessed as growth inhibition at 10 uM by sulforhodamine B assay; details: HCC 2998, read-out: GI
[21] = system: UACC-62; test: Growth inhibition of human UACC62 cells assessed as cell growth at 10 uM by sulforhodamine B assay; details: read-out: Activity
[22] = system: HCT-15; test: Growth inhibition of human HCT15 cells assessed as growth inhibition at 10 uM by sulforhodamine B assay; details: read-out: GI
[23] = system: RPMI-8226; test: Growth inhibition of human RPMI8226 cells assessed as cell growth at 10 uM by sulforhodamine B assay; details: read-out: Activity
[24] = system: MOLT-4; test: Growth inhibition of human MOLT4 cells assessed as growth inhibition at 10 uM by sulforhodamine B assay; details: read-out: GI
[25] = system: MCF7; test: Growth inhibition of human MCF7 cells assessed as cell growth at 10 uM by sulforhodamine B assay; details: read-out: Activity
[26] = system: M14; test: Growth inhibition of human M14 cells assessed as cell growth at 10 uM by sulforhodamine B assay; details: read-out: Activity
[27] = system: MOLT-4; test: Growth inhibition of human MOLT4 cells assessed as cell growth at 10 uM by sulforhodamine B assay; details: read-out: Activity
[28] = system: MDA-MB-468; test: Growth inhibition of human MDA-MB-468 cells assessed as growth inhibition at 10 uM by sulforhodamine B assay; details: read-out: GI
[29] = system: PC-3; test: Growth inhibition of human PC3 cells assessed as growth inhibition at 10 uM by sulforhodamine B assay; details: read-out: GI
[30] = system: TK-10; test: Growth inhibition of human TK10 cells assessed as growth inhibition at 10 uM by sulforhodamine B assay; details: read-out: GI
[31] = system: NCI-H226; test: Growth inhibition of human NCI-H226 cells assessed as cell growth at 10 uM by sulforhodamine B assay; details: read-out: Activity
[32] = system: RPMI-8226; test: Growth inhibition of human RPMI8226 cells assessed as growth inhibition at 10 uM by sulforhodamine B assay; details: read-out: GI
[33] = system: Malme-3M; test: Growth inhibition of human MALME-3M cells assessed as growth inhibition at 10 uM by sulforhodamine B assay; details: read-out: GI
[34] = system: OVCAR-4; test: Growth inhibition of human OVCAR4 cells assessed as cell growth at 10 uM by sulforhodamine B assay; details: read-out: Activity
[35] = system: UACC-257; test: Growth inhibition of human UACC257 cells assessed as cell growth at 10 uM by sulforhodamine B assay; details: read-out: Activity
[36] = Growth inhibition of human Hs 578T cells assessed as growth inhibition at 10 uM by sulforhodamine B assay; details: read-out: GI
[37] = system: CCRF-CEM; test: Growth inhibition of human CCRF-CEM cells assessed as growth inhibition at 10 uM by sulforhodamine B assay; details: read-out: GI
[38] = system: SF-268; test: Growth inhibition of human SF268 cells assessed as growth inhibition at 10 uM by sulforhodamine B assay; details: read-out: GI
[39] = system: U-251; test: Growth inhibition of human U251 cells assessed as growth inhibition at 10 uM by sulforhodamine B assay; details: read-out: GI
[40] = system: SK-MEL-28; test: Growth inhibition of human SK-MEL-28 cells assessed as cell growth at 10 uM by sulforhodamine B assay; details: read-out: Activity
[41] = system: SW-620; test: Growth inhibition of human SW620 cells assessed as cell growth at 10 uM by sulforhodamine B assay; details: read-out: Activity
[42] = system: RXF 393; test: Growth inhibition of human RXF393 cells assessed as growth inhibition at 10 uM by sulforhodamine B assay; details: read-out: GI
[43] = system: A549; test: Growth inhibition of human A549/ATCC cells assessed as growth inhibition at 10 uM by sulforhodamine B assay; details: read-out: GI
[44] = system: NCI-H522; test: Growth inhibition of human NCI-H522 cells assessed as growth inhibition at 10 uM by sulforhodamine B assay; details: read-out: GI
[45] = system: NCI-H322M; test: Growth inhibition of human NCI-H322M cells assessed as cell growth at 10 uM by sulforhodamine B assay; details: read-out: Activity
[46] = system: HOP-92; test: Growth inhibition of human HOP92 cells assessed as cell growth at 10 uM by sulforhodamine B assay; details: read-out: Activity
[47] = system: SF-295; test: Growth inhibition of human SF295 cells assessed as growth inhibition at 10 uM by sulforhodamine B assay; details: read-out: GI
[48] = system: SNB-19; test: Growth inhibition of human SNB19 cells assessed as growth inhibition at 10 uM by sulforhodamine B assay; details: read-out: GI
[49] = system: K562; test: Growth inhibition of human K562 cells assessed as growth inhibition at 10 uM by sulforhodamine B assay; details: read-out: GI

## CC1(C)C[C@@H](O)[C@]2(C(=O)O)CC[C@]3(C)C(=CC[C@@H]4[C@@]5(C)CC[C@H](O)C(C)(C)[C@@H]5CC[C@]43C)[C@@H]2C1
[1]
  growth at 10 µM: 94%
[2]
  inhibition of growth at 10 µM: < 10%
[3]
  growth at 10 µM: 102%
[4]
  growth at 10 µM: 103%
[5]
  inhibition of growth at 10 µM: < 10%
[6]
  growth at 10 µM: 97.9%
[7]
  inhibition of growth at 10 µM: < 10%
[8]
  growth at 10 µM: 102%
[9]
  growth at 10 µM: 76.5%
[10]
  growth at 10 µM: 82%
[11]
  growth at 10 µM: 96.5%
[12]
  growth at 10 µM: 119%
[13]
  inhibition of growth at 10 µM: < 10%
[14]
  growth at 10 µM: 87.5%
[15]
  inhibition of growth at 10 µM: < 10%
[16]
  inhibition of growth at 10 µM: < 10%
[17]
  inhibition of growth at 10 µM: 11.1%
[18]
  inhibition of growth at 10 µM: < 10%
[19]
  growth at 10 µM: 91.8%
[20]
  inhibition of growth at 10 µM: < 10%
[21]
  growth at 10 µM: 88.2%
[22]
  inhibition of growth at 10 µM: < 10%
[23]
  growth at 10 µM: 89.3%
[24]
  inhibition of growth at 10 µM: 21.7%
[25]
  growth at 10 µM: 96.4%
[26]
  growth at 10 µM: 93.6%
[27]
  growth at 10 µM: 78.3%
[28]
  inhibition of growth at 10 µM: 88.8%
[29]
  inhibition of growth at 10 µM: 23.5%
[30]
  inhibition of growth at 10 µM: < 10%
[31]
  growth at 10 µM: 107%
[32]
  inhibition of growth at 10 µM: 10.7%
[33]
  inhibition of growth at 10 µM: < 10%
[34]
  growth at 10 µM: 96%
[35]
  growth at 10 µM: 107%
[36]
  inhibition of growth at 10 µM: < 10%
[37]
  inhibition of growth at 10 µM: 11.6%
[38]
  inhibition of growth at 10 µM: < 10%
[39]
  inhibition of growth at 10 µM: < 10%
[40]
  growth at 10 µM: 95.6%
[41]
  growth at 10 µM: 109%
[42]
  inhibition of growth at 10 µM: < 10%
[43]
  inhibition of growth at 10 µM: 12.4%
[44]
  inhibition of growth at 10 µM: < 10%
[45]
  growth at 10 µM: 99%
[46]
  growth at 10 µM: 103%
[47]
  inhibition of growth at 10 µM: < 10%
[48]
  inhibition of growth at 10 µM: < 10%
[49]
  inhibition of growth at 10 µM: < 10%
